Read-outs that look alike come from different tables or passages of the source.
How the values were obtained:
[1] = system: 2019 novel coronavirus (SARS-CoV-2) original strain; test: Replication inhibitory activity against SARS-CoV-2 original strain in Vero E6 cells (qRT-PCR); type: cell-based; conditions: Severe acute respiratory syndrome coronavirus 2, Vero C1008; Vero E6 cells, MOI 0.01, 24 h p.i., viral copy number by qRT-PCR; read-out: Inhibition against viral replication of the original strain EC50
[2] = system: HCoV OC43 virus; test: Inhibition against HCoV OC43 virus replication; type: cell-based, human coronavirus HCoV OC43; conditions: Betacoronavirus 1, OC43
[3] = target: T1, hERG potassium channel (Homo sapiens, UniProt Q12809); test: hERG potassium channel whole-cell membrane clamp in CHO cells; type: cell-based; conditions: CHO cells stably expressing hERG, whole-cell membrane clamp
T1 construct: expressed in transfected cells
T1 sequence (Q12809 whole entry): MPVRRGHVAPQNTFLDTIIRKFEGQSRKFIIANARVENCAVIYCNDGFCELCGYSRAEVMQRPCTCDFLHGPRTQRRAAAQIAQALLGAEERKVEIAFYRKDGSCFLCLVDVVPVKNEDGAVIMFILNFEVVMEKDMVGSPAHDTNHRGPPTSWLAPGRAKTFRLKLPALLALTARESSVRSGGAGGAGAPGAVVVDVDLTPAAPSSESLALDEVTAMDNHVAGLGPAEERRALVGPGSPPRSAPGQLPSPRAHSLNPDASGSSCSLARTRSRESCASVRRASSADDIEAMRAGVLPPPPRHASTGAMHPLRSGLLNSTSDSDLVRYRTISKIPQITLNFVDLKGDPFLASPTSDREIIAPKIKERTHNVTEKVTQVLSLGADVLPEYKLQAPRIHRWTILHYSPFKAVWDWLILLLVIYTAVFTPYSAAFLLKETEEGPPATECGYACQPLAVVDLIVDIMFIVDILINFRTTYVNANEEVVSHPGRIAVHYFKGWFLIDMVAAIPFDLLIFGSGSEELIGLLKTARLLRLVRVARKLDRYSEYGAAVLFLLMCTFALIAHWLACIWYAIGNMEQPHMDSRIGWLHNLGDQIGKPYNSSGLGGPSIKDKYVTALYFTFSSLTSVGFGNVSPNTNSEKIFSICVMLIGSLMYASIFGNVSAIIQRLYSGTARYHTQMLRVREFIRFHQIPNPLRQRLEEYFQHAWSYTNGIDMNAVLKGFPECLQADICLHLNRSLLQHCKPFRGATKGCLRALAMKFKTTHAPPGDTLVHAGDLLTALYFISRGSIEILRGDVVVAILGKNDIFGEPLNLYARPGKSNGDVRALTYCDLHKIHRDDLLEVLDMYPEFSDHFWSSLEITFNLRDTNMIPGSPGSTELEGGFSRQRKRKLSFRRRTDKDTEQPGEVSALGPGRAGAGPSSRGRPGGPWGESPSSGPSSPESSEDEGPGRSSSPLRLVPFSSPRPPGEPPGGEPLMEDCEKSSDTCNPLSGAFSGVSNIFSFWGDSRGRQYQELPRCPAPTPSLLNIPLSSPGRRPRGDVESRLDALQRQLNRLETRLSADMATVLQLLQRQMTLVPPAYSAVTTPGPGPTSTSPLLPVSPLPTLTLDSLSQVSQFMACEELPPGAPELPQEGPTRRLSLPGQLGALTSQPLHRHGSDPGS
Experimental: Compounds were given for at least 1 min for each tested concentration, and at least 2 cells (n≥2) were tested per concentration.

[4] = Cytotoxicity test on Vero E6 cells (CCK8); type: cell-based; conditions: African green monkey; Vero E6 cells, CCK8 kit
Experimental: (§1) In this embodiment, the half toxicity concentration of each embodiment on Vero E6 cells was determined by CCK8 kit analysis (CC50).

[5] = target: novel coronavirus envelope protein (2-E) ion channel (Severe acute respiratory syndrome coronavirus 2, UniProt P0DTC4); test: Novel coronavirus envelope protein (2-E) ion channel activity test, planar lipid bilayer (BLM); type: biochemical, SARS-CoV-2; conditions: room temperature, 1, 10, 50, 100 μM, read-out: Inhibition against 2-E ion channels IC50
Chain of novel coronavirus envelope protein (2-E) ion channel (P0DTC4 whole entry, looked up): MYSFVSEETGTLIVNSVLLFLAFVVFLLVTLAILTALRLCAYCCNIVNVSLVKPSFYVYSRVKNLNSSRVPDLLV

[6] = system: Vero E6 cells; test: Cytotoxicity test on Vero E6 cells (CCK8); type: cell-based
Experimental: as §1

[7] = system: Raw 264.7 cells; test: Cell viability in LPS-induced inflammation model of Raw 264.7 cells (CCK-8); type: cell-based; conditions: 1 μg/ml LPS, 1 μM compound, 16 hours
Experimental: In this example, the effect of the compounds of the present invention on the inflammation level of the LPS-induced inflammation model of Raw 264.7 cells was analyzed by cell viability in combination with inflammatory factors; cell viability was analyzed by CCK-8 assay; and mRNA expression levels of inflammation-related indicators were detected by a real-time quantitative PCR (Q-PCR) method. Raw 264.7 cells were purchased from ATCC; CCK-8 kit was purchased from Meilunbio, item no. MA0218-3; LPS was purchased from Sigma, item no. L2630.
(§2) Experimental methods: first, 8000 cells/well Raw 264.7 cells were placed in 96-well plates and incubated overnight. On the second day, 0.1% DMSO was added to the control cells, 1 μg/ml LPS as well as 0.1% DMSO was added to the model group, 1 μg/ml LPS as well as 1 μM of the compounds (oxyacanthine hydrochloride (oxy), 1, 2, tetrandrine (tet), 3, 4, 6, 58) was added to the treatment group, and the 96-well plates were sterilized and incubated in a constant temperature incubator for 16 hours. Finally, the viability of the cells was detected using the CCK-8 kit.

[8] = system: Raw 264.7 cells; test: Cell viability in TNF-α induced inflammation model of Raw 264.7 cells (CCK-8); type: cell-based; conditions: 10 ng/ml TNF-α, 1 μM compound, 16 hours
Experimental: In this embodiment, the effect of compounds on TNF-α-induced inflammation levels in Raw 264.7 cells was analyzed by cell viability combined with inflammatory factor expression levels; cell viability was analyzed by CCK-8 assay; and mRNA expression levels of inflammation-associated indicators were detected by real-time quantitative PCR (Q-PCR) method. Raw 264.7 cells were purchased from ATCC, CCK-8 kit was purchased from Meilunbio, item number MA0218-3, TNF-α was purchased from Merck, item no. GF314.
as §2, with “10 ng/ml TNF-α” for “1 μg/ml LPS”

[9] = system: ALM12 hepatocytes; test: Anti H2O2-induced necrotic injury assay in ALM12 hepatocytes (microscopy, CCK-8); type: cell-based; conditions: 2 mM H2O2, 1 μM compound, 3 hours, microscope and CCK-8
Experimental: In this example, the effect of the compounds of the present invention on the level of necrotic injury induced by H2O2 in ALM12 hepatocytes was analyzed by microscopic morphological observations, cell viability in combination with cell death-associated molecules. Cell viability was analyzed by CCK-8 assay. ALM12 cells were cultured in 1640 medium (gibco, c11995500BT)+10% FBS (gibco, 10099141C) in a constant temperature incubator at 37° C., 5% CO2; the CCK-8 kit was purchased from Meilunbio, item no. MA0218-3; H2O2 was purchased from Sinopharm Chemical Reagent Co. item no. 10011208.
Experimental methods: first, 8000 cells/well ALM12 cells were placed in 96-well plates and incubated overnight. On the second day, 0.1% DMSO was added to the control cells, 2 mM H2O2 as well as 0.1% DMSO was added to the model group, 2 mM H2O2 as well as 1 μM of the compounds (oxy, 1, 2, tet, 3, 4, 6, 58) was added to the treatment group, and the 96-well plates were sterilized and incubated in a constant temperature incubator for 3 hours. Finally, cell injury and growth were observed using a microscope; the viability of the cells was detected by CCK-8 kit.

| SMILES | EC50 [1] [µM] | IC50 [3] [µM] | IC50 [4] [µM] | also measured |
| --- | --- | --- | --- | --- |
| COc1cc2c3cc1Oc1c(OC)c(OC)cc4c1[C@H](Cc1ccc(cc1)Oc1cccc(c1)C[C@H]3N(C)CC2)N(C)CC4 [Compound 33] | 0.1 to 1 | > 40 | 10 to 30 | EC50 [2]: 4.1 µM |
| COc1cc2c3cc1Oc1c(OC)c(OC)cc4c1[C@H](Cc1ccc(cc1)Oc1cc(ccc1C(=O)NC1CCC1)C[C@H]3N(C)CC2)N(C)CC4 [Compound 50] | 0.1 to 1 | 4.5 | 30 to 50 | – |
| COc1cc2c3cc1Oc1c(OC)c(OC)cc4c1[C@H](Cc1ccc(cc1)Oc1cc(ccc1C(C)=O)C[C@H]3N(C)CC2)N(C)CC4 [Compound 19] | 0.5 to 1.5 | – | 30 to 50 | – |
| COc1cc2c3cc1Oc1c(OC)c(OC)cc4c1[C@H](Cc1ccc(cc1)Oc1cc(ccc1C(=O)NC1CCCC1)C[C@H]3N(C)CC2)N(C)CC4 [Compound 22] | 0.5 to 1.5 | – | 10 to 30 | – |
| COc1cc2c3cc1Oc1c(OC)c(OC)cc4c1[C@H](Cc1ccc(cc1)Oc1cc(ccc1C(=O)NC(C)C)C[C@H]3N(C)CC2)N(C)CC4 [Compound 48] | 0.1 to 1 | – | 10 to 30 | – |
| COc1cc2c3cc1Oc1c(OC)c(OC)cc4c1[C@H](Cc1ccc(cc1)Oc1cc(ccc1C)C[C@H]3N(C)CC2)N(C)CC4 [Compound 35] | 1 to 5 | – | 10 to 30 | – |
| C=C(C)c1ccc2cc1Oc1ccc(cc1)C[C@H]1c3c(cc(OC)c(OC)c3Oc3cc4c(cc3OC)CCN(C)[C@@H]4C2)CCN1C [Compound 34] | 0.5 to 1.5 | – | 10 to 30 | IC50 [5]: < 10 µM |
| CCCCCNC(=O)c1ccc2cc1Oc1ccc(cc1)C[C@H]1c3c(cc(OC)c(OC)c3Oc3cc4c(cc3OC)CCN(C)[C@@H]4C2)CCN1C [Compound 37] | 1 to 5 | > 20 | 10 to 30 | IC50 [5]: < 10 µM |
| COc1cc2c3cc1Oc1c(OC)c(OC)cc4c1[C@H](Cc1ccc(cc1)Oc1cc(ccc1CO)C[C@H]3N(C)CC2)N(C)CC4 [Compound 9] | 0.5 to 1.5 | – | > 50 | EC50 [2]: 3 µM; IC50 [5]: 10 to 30 µM |
| COc1cc2c3cc1Oc1c(OC)c(OC)cc4c1[C@H](Cc1ccc(cc1)Oc1cc(ccc1C(C)O)C[C@H]3N(C)CC2)N(C)CC4 (stereo partly shown) [Compound 40] | 0.1 to 1 | – | 30 to 50 | – |
| COc1cc2c3cc1Oc1c(OC)c(OC)cc4c1[C@H](Cc1ccc(cc1)Oc1cc(ccc1C(=O)Nc1cccnc1)C[C@H]3N(C)CC2)N(C)CC4 [Compound 51] | 0.1 to 1 | – | 10 to 30 | – |
| COc1cc2c3cc1Oc1c(OC)c(OC)cc4c1[C@H](Cc1ccc(cc1)Oc1cc(ccc1C(=O)Nc1ccccc1)C[C@H]3N(C)CC2)N(C)CC4 [Compound 45] | 1 to 5 | > 20 | 10 to 30 | IC50 [5]: < 10 µM |
| COc1cc2c3cc1Oc1c(OC)c(OC)cc4c1[C@H](Cc1ccc(cc1)Oc1cc(ccc1C(=O)NCCOCCO)C[C@H]3N(C)CC2)N(C)CC4 [Compound 55] | 1 to 5 | > 40 | > 100 | – |
| COc1ccc(NC(=O)c2ccc3cc2Oc2ccc(cc2)C[C@H]2c4c(cc(OC)c(OC)c4Oc4cc5c(cc4OC)CCN(C)[C@@H]5C3)CCN2C)cc1 [Compound 52] | 0.1 to 1 | – | 10 to 30 | – |
| COc1cc2c3cc1Oc1c(OC)c(OC)cc4c1[C@@H](Cc1ccc(O)c(c1)Oc1ccc(cc1)C[C@@H]3N(C)CC2)N(C)CC4 [berbamine, reference compound] | – | – | – | cytotoxicity (background statement) ([6]; inventors' screening of natural products): high cytotoxicity |
| COc1ccc2cc1Oc1ccc(cc1)C[C@H]1c3cc(c(OC)cc3CCN1C)Oc1c(OC)c(OC)cc3c1[C@H](C2)N(C)CC3 [tetrandrine, reference compound] | – | – | – | cytotoxicity (background statement) [6]: high cytotoxicity |
| COc1cc2c3cc1Oc1c(OC)c(OC)cc4c1[C@H](Cc1ccc(cc1)Oc1cc(ccc1C(=O)NC15CC6CC(CC(C6)C1)C5)C[C@H]3N(C)CC2)N(C)CC4 [Compound 49] | 0.1 to 1 | – | 5 to 10 | – |
| COc1cc2c3cc1Oc1c(OC)c(OC)cc4c1[C@H](Cc1ccc(cc1)Oc1cc(ccc1C(=O)C1CC1)C[C@H]3N(C)CC2)N(C)CC4 [Compound 54] | 1 to 5 | – | 10 to 30 | – |
| COc1cc2c3cc1Oc1c(OC)c(OC)cc4c1[C@H](Cc1ccc(cc1)Oc1cc(cc5[nH]c(=O)oc15)C[C@H]3N(C)CC2)N(C)CC4 [Compound 17] | 0.1 to 1 | – | 10 to 30 | – |
| COc1cc2c3cc1Oc1c(OC)c(OC)cc4c1[C@H](Cc1ccc(cc1)Oc1cc(ccc1C(=O)O)C[C@H]3N(C)CC2)N(C)CC4 [Compound 7] | – | > 40 | > 50 | IC50 [5]: 10 to 30 µM |
| CNC(=O)c1ccc2cc1Oc1ccc(cc1)C[C@H]1c3c(cc(OC)c(OC)c3Oc3cc4c(cc3OC)CCN(C)[C@@H]4C2)CCN1C [Compound 5] | 1 to 10 | 9.4 | > 50 | cytotoxicity on Vero E6 cells compared with oxyacanthine hydrochloride ([6]; Vero E6 cells): weaker cytotoxicity than oxyacanthine hydrochloride |
| COc1cc2c3cc1Oc1c(OC)c(OC)cc4c1[C@H](Cc1ccc(cc1)Oc1cc(ccc1C#N)C[C@H]3N(C)CC2)N(C)CC4 [Compound 1] | 0.1 to 1 | 6.4 | 10 to 30 | EC50 [2]: 4.2 µM; IC50 [5]: < 10 µM; cell viability in LPS-induced inflammation model [7]: did not affect cell viability; cell viability in TNF-α-induced inflammation model [8]: did not affect cell viability; alleviation of H2O2-induced ALM12 hepatocyte injury [9]: significantly alleviated |
| COc1cc2c3cc1Oc1c(OC)c(OC)cc4c1[C@H](Cc1ccc(cc1)Oc1cc(ccc1C1CC1)C[C@H]3N(C)CC2)N(C)CC4 [Compound 38] | 1 to 5 | – | 10 to 30 | – |
